Measurements reported in patent publication US20100158866A1, “PREDICTION OF HCV TREATMENT RESPONSE” (priority 2008, published 2010).

Columns and labels:
HCV genotype 1 [1] = experiment: Phase 2A clinical trial of RO4588161 with Pegasys with or without ribavirin: HCV RNA viral load and viral response (Roche COBAS TaqMan HCV Test); type: in vivo, human; settings: for mean change in viral concentrations (HCV RNA) from baseline at week 4: 4 weeks
Source text: (§1) This was a phase 2A, multi-center, randomized, double-blinded (RO4588161 and ribavirin were double-blinded and Pegasys was open labeled), active-controlled, with a parallel-group study which is ongoing. A screening period (time from the first screening assessment to the first administration of test drug) of 35 days preceded the treatment portion of the trial (FIG. 1). The HCV genotype and HCV RNA titer of each patient was confirmed during the screening period and only treatment-naïve patients with HCV genotype-1 and HCV RNA titer […] were eligible for enrollment.
One hundred and seven male and female patients between 18 and 66 years of age were enrolled into the study. Patients were randomized into four treatment groups: • Group A/Dual 1500 [RO4588161 1500 mg oral, twice daily+Pegasys 180 μg subcutaneous, once weeky] for 4 weeks-21 patients, • Group B/Dual 3000 [RO4588161 3000 mg oral, twice daily+Pegasys 180 μg subcutaneous, once weekly] for 4 weeks-34 patients, • Group C/Triple 1500 [RO4588161 1500 mg oral, twice daily+Pegasys 180 μg subcutaneous, once weekly+ribavirin 1000 mg (<75 kg) or 1200 mg […] oral daily] for 4 weeks-31 patients or • Group D/standard of care (SOC) [Pegasys 180 μg subcutaneous, once weekly+ribavirin 1000 mg (<75 kg) or 1200 mg (≧75 kg) oral daily] for 4 weeks-21 patients
Patients meeting all eligibility criteria were randomized to receive RO4588161 in combination with Pegasys with or without ribavirin for 4 weeks or to SOC.
All patients who received at least one dose of study medication would continue to receive open label Pegasys 180 μg sc qw and ribavirin 1000 mg (<75 kg) or 1200 mg (≧75 kg) po qd to complete a total treatment period of 48 weeks.
Randomization was stratified by the PK subcohort (sparse PK versus intensive PK) in a 2:3:3:2 ratio into the following treatment groups (Group A/Dual 1500˜20, Group B/Dual 3000˜30, Group C/Triple 1500˜30, Group D/SOC˜20).
All patients were to have a safety follow up visit at week 8, 4 weeks after the last dose of the experimental drug combination. Patients were to have this 4 week safety follow up visit during their treatment with the standard of care therapy. Patients who have completed a full 48-week course of therapy were followed for 24 weeks post treatment completion.
Pharmacodynamic analysis included the assessment of serum viral load, and viral response at individual clinical visits and an assessment of antiviral resistance development with RO4588161 given in combination with Pegasys with or without ribavirin in treatment naïve patients with chronic HCV genotype 1 virus infection. Viral response was defined as the percentage of patients with undetectable HCV RNA as measured by the Roche COBAS TaqMan HCV Test (<15 IU/mL). Pharmacodynamic data were presented by listings, summary statistics (including means, medians, standard errors, confidence intervals for means, ranges, coefficients of variation, proportions of patients with response and confidence intervals for proportions) and plots of means over time.

[2] = Phase 2A clinical trial of RO4588161: premature withdrawal for safety reasons; type: in vivo, human
Source text: as §1
One hundred and seven male and female patients between 18 and 66 years of age were enrolled into the study. Patients were randomized into four treatment groups: • Group A/Dual 1500 [RO4588161 1500 mg oral, twice daily+Pegasys 180 μg subcutaneous, once weeky] for 4 weeks-21 patients, • Group B/Dual 3000 [RO4588161 3000 mg oral, twice daily+Pegasys 180 μg subcutaneous, once weekly] for 4 weeks-34 patients, • Group C/Triple 1500 [RO4588161 1500 mg oral, twice daily+Pegasys 180 μg subcutaneous, once weekly+ribavirin 1000 mg (<75 kg) or 1200 mg […] oral daily] for 4 weeks-31 patients or • Group D/standard of care (SOC) [Pegasys 180 μg subcutaneous, once weekly+ribavirin 1000 mg (<75 kg) or 1200 mg (≧75 kg) oral daily] for 4 weeks-21 patients […]

HCV genotype 1 [3] = experiment: Phase II clinical trial of RO5024048 with Pegasys and ribavirin: plasma HCV RNA; type: in vivo, human
Source text: Twenty-five (25) patients per Cohort of RO5024048 were enrolled. Twenty (20) patients per cohort received RO5024048 in combination with standard of care (SOC) and five (5) patients per cohort were randomized to receive SOC with a RO5024048 placebo. Patients were screened up to 56 days prior to enrollment. On Day −1, patients visited the clinic for pre-dose assessments. On Day 1, patients received an oral dose of study drug RO5024048 or placebo and Pegasys/ribovarin in the morning with a light meal and at least 240 mL of water.
A majority of dosing occurred on an outpatient basis. Periodically, patients returned to the clinic for study assessments. Early morning on Days 7, 14, 21, and 28, patients were asked to report to the clinic after an overnight fast. Patients received their RO5024048/placebo in combination with Pegasys and Ribovarin with a light meal and 240 mL of water in the morning in the clinic. Patients were followed through Day 56 (28 days after dosing is completed).
After completing four weeks of the combination-dosing regimen followed by at least 4 weeks of SOC dosing (RO5024048 washout), all patients were eligible to receive up to 40 weeks, depending upon genotype, of open label standard of care (SOC) dosing with Pegasys plus ribavirin. Genotype 2 or 3 subjects enrolling in Cohort 4 will receive a total of 24 weeks of Pegasys plus ribovarin. An overview of the study design is outlined in Table 1.

[4] = human, in vivo; cited from earlier work
HCV = settings: cited from earlier work

SMILES: CC(C)C(=O)OC[C@@]1(N=[N+]=[N-])O[C@@H](n2ccc(N)nc2=O)[C@H](OC(=O)C(C)C)[C@@H]1OC(=O)C(C)C [RO4588161, Isobutyric acid (2R,3S,4R,5R)-5-(4-amino-2-oxo-2H-pyrimidin-1-yl)-2-azido-3,4-bis-isobutyryloxy-tetrahydro-furan-2-ylmethyl ester]
- mean change in viral concentrations (HCV RNA) from baseline at week 4 (HCV genotype 1 [1]; Dual 1500: RO4588161 1500 mg oral twice daily + Pegasys 180 μg sc once weekly): −3.6 log10 IU/mL
- difference in mean change in viral concentrations (HCV genotype 1 [1]; Dual 3000 vs Dual 1500, week 4, printed as 'minus 0.9'): 0.9 log10 IU/mL
- mean change in viral concentrations (HCV RNA) from baseline at week 4 (HCV genotype 1 [1]; Triple 1500: RO4588161 1500 mg oral twice daily + Pegasys 180 μg sc once weekly + ribavirin 1000/1200 mg oral daily): −5.2 log10 IU/mL
- patients achieving RVR4 (undetectable HCV RNA at four weeks of treatment) (HCV genotype 1 [1]; Triple 1500 group (N=31)): 23 out of the 31
- patients achieving sustained virological response (SVR) at 24 weeks post treatment completion (HCV genotype 1 [1]; Triple 1500 group, of the thirteen patients undetectable at two weeks): Eleven
- antiviral effect, non-overlapping 95% confidence intervals (HCV genotype 1 [1]; Triple 1500 over Dual 1500 and SOC): superior antiviral effect
- difference in mean change in viral concentrations (HCV genotype 1 [1]; Triple 1500 vs Dual 1500, week 4, printed as 'minus 1.6'): 1.6 log10 IU/mL
- difference in mean change in viral concentrations (HCV genotype 1 [1]; Triple 1500 vs SOC, week 4, printed as 'minus 2.8'): 2.8 log10 IU/mL
- decrease in the mean HCV RNA (IU/mL) from baseline at week 4 (HCV genotype 1 [1]; all RO4588161 containing groups (Dual 1500, Dual 3000, Triple 1500), 4 weeks treatment, treatment-naive HCV genotype-1 patients): ≥ 3.6 log10
- earliest assessment at which declines in HCV RNA were observed, following the first dose (HCV genotype 1 [1]; first assessment): 72 h
- plasma viral load following treatment (HCV genotype 1 [1]; treatment with RO4588161, Pegasys and ribavirin): Dose- and time-dependent decreases
- patients who prematurely withdrew for safety reasons from the drug ([2]; among the 104 evaluable patients): 43 patients

SMILES: CC(C)C(=O)OC[C@H]1O[C@@H](n2ccc(N)nc2=O)[C@](C)(F)[C@@H]1OC(=O)C(C)C [RO5024048, Isobutyric acid (2R,3R,4R,5R)-5-(4-amino-2-oxo-2H-pyrimidin-1-yl)-4-fluoro-3-isobutyryloxy-4-methyl-tetrahydro-furan-2-ylmethyl ester]
- whether HCV RNA could be detected at Week 8 (HCV genotype 1 [3]; 1500 mg RO5024048 + Pegasys + ribavirin, patients not undetectable until day 17 (FIG. 4) or day 28 (FIG. 5)): mixed
- HCV RNA status on day 56 (Week 8) (HCV genotype 1 [3]; 1500 mg RO5024048 + Pegasys + ribavirin, patients with undetectable HCV RNA at 14 days of treatment (FIG. 3)): all HCV RNA negative
- decreases in plasma viral load (HCV genotype 1 [3]; four-week treatment, 1500 mg RO5024048 twice daily with SOC dosing of Pegasys and ribavirin, compared with other dose levels): most notable decreases

SMILES: NC(=O)c1ncn([C@@H]2O[C@H](CO)[C@@H](O)[C@H]2O)n1 [ribavirin, 1-((2R,3R,4S,5R)-3,4-Dihydroxy-5-hydroxymethyl-tetrahydro-furan-2-yl)-1H-[1,2,4]triazole-3-carboxylic acid amide]
- patients with hemolytic anemia requiring dose reduction or discontinuation of ribavirin therapy [4]: 10-20 % of patients
- patients in whom serum amino transferase levels are reduced to normal (HCV; monotherapy): 40 % of patients
- effect on serum levels of HCV-RNA (HCV; ribavirin monotherapy): does not lower
- patients who prematurely withdrew for safety reasons from the drug ([2]; both, human, in vivo, 4 weeks): 5 patients
